Data published in ChEMBL document CHEMBL1833830, “1-[2-(2-Benzoyl- and 2-benzylphenoxy)ethyl]uracils as potent anti-HIV-1 agents” (Bioorg Med Chem, 2011).
In brackets after ≈: the same amount, converted by molar mass. Activity calls are given as the source filed them. The rule behind the calls is not given here.

Key:
Human respirovirus 3 = test: Antiviral activity against Parainfluenza 3 virus assessed as inhibition of viral replication; type: functional, organism-based
[1] = test system: Mammalian orthoreovirus 1; test: Antiviral activity against Reovirus 1 assessed as inhibition of viral replication; type: functional, organism-based
Sindbis virus = test: Antiviral activity against Sindbis virus assessed as inhibition of viral replication; type: functional, organism-based
[2] = test system: Vesicular stomatitis virus; test: Antiviral activity against Vesicular stomatitis virus assessed as inhibition of viral replication; type: functional, organism-based
[3] = test system: Respiratory syncytial virus; test: Antiviral activity against Respiratory syncytial virus assessed as inhibition of viral replication; type: functional, organism-based
Coxsackievirus B4 = test: Antiviral activity against Coxsackievirus B4 assessed as inhibition of viral replication; type: functional, organism-based
Feline coronavirus = test: Antiviral activity against Feline coronavirus assessed as inhibition of viral replication; type: functional, organism-based
Yellow fever virus = test: Antiviral activity against Yellow fever virus assessed as inhibition of viral replication; type: functional, organism-based
Dengue virus = test: Antiviral activity against Dengue virus assessed as inhibition of viral replication; type: functional, organism-based
Rift Valley fever virus = test: Antiviral activity against Rift Valley fever virus assessed as inhibition of viral replication; type: functional, organism-based
Punta Toro virus = test: Antiviral activity against Punta Toro virus assessed as inhibition of viral replication; type: functional, organism-based
West Nile virus = test: Antiviral activity against West Nile virus assessed as inhibition of viral replication; type: functional, organism-based
[4] = Inhibition of DNA-dependent DNA polymerase activity of HIV1 reverse transcriptase p66/p66 homodimer using activated DNA and [alpha-32P]dATP after 30 mins by liquid scintillation counting; set-up: species or system Human immunodeficiency virus 1
[5] = molecular target: Human immunodeficiency virus type 1 reverse transcriptase (Human immunodeficiency virus 1, UniProt Q72547); test: Inhibition of RNA-dependent DNA polymerase activity of HIV1 reverse transcriptase p66/p51 heterodimer using [8-3H]dGTP as substrate after 30 mins by liquid scintillation counting
[6] = Solubility of the compound in 10% DMSO after overnight incubation by UV spectrometric analysis; type: physicochemical
[7] = Solubility of the compound in 0.1% DMSO after overnight incubation by UV spectrometric analysis; type: physicochemical
[8] = test system: Human immunodeficiency virus 2; test: Antiviral activity against Human immunodeficiency virus type 2 ROD infected in human CEM cells assessed as inhibition of virus-induced giant cell formation after 4 days by microscopic analysis; type: functional, organism-based; settings: ISOLATE ROD, CCRF-CEM
[9] = test system: Human immunodeficiency virus 2; test: Antiviral activity against Human immunodeficiency virus type 2 ROD infected in human MT4 cells assessed as inhibition of virus-induced cytopathic effect after 4 days by MTT assay; type: functional, organism-based; settings: ISOLATE ROD
[10] = test system: Human immunodeficiency virus 1; type: functional, organism-based; settings: Human immunodeficiency virus 1, 3B, MT4, 96 h
[11] = Cytotoxicity against human MT4 cells after 4 days by MTT assay; type: cell-based
Human alphaherpesvirus 1 = test: Antiviral activity against HSV1 assessed as inhibition of viral replication; type: functional, organism-based
Human alphaherpesvirus 2 = test: Antiviral activity against HSV-2 assessed as inhibition of viral replication; type: functional, organism-based
Vaccinia virus = test: Antiviral activity against Vaccinia virus assessed as inhibition of viral replication; type: functional, organism-based; settings: Orthopoxvirus vaccinia
in vitro [12] = settings: human, MT4 cells
in vitro [13] = settings: human, MT4 cells; remark: listed apart in the source
[14] = test system: Human immunodeficiency virus 1; test: microbe, parasite or virus in culture; settings: Human immunodeficiency virus 1, 3B, MT4, 96 h

SMILES	Activity (Human respirovirus 3)	Activity [1]	Activity (Sindbis virus)	Activity [2]	Activity [3]	Activity (Coxsackievirus B4)	Activity (Feline coronavirus)	Activity (Yellow fever virus)	Activity (Dengue virus)	Activity (Rift Valley fever virus)	Activity (Punta Toro virus)	Activity (West Nile virus)	Ki [4]	Ki [5]	Activity [8]	Activity [9]	EC50 [10]	CC50 at 96 h [11]	Activity (Human alphaherpesvirus 1)	Activity (Human alphaherpesvirus 2)	further results
O=C(c1cc(Cl)cc(Cl)c1)c1cc(Br)ccc1OCCn1ccc(=O)[nH]c1=O	inactive	inactive	inactive	inactive	inactive	inactive	inactive	inactive	inactive	inactive	inactive	inactive	690 nM	160 nM	inactive	inactive	24800 nM	> 258000 nM	inactive	inactive	solubility [6]: 1.5 µM (≈ 0.726 µg/mL); solubility [7]: 0.2 µM (≈ 0.0968 µg/mL); Activity (Vaccinia virus): inactive; selectivity ratio (in vitro [12]): > 15200; selectivity ratio (in vitro [13]): > 10; EC50 [14]: 17 nM
Cc1cc(C)cc(C(=O)c2cc(Br)ccc2OCCn2ccc(=O)[nH]c2=O)c1	inactive	inactive	inactive	inactive	inactive	inactive	inactive	inactive	inactive	inactive	inactive	inactive	770 nM	1700 nM	inactive	inactive	> 282000 nM	> 282000 nM	inactive	inactive	solubility [6]: 6.6 µM (≈ 2.93 µg/mL); solubility [7]: 1.8 µM (≈ 0.798 µg/mL); Activity (Vaccinia virus): inactive; selectivity ratio (in vitro [12]): > 12300; selectivity ratio (in vitro [13]): 1; EC50 [14]: 23 nM
Cc1cc(C)cc(C(=O)c2cc(Cl)ccc2OCCn2cc(C)c(=O)[nH]c2=O)c1	inactive	inactive	inactive	inactive	inactive	inactive	inactive	inactive	inactive	inactive	inactive	inactive	1200 nM	1100 nM	inactive	inactive	4090 nM	> 303000 nM	inactive	inactive	Activity (Vaccinia virus): inactive; selectivity ratio (in vitro [12]): > 6880; selectivity ratio (in vitro [13]): > 74; EC50 [14]: 44 nM
O=C(c1cc(F)cc(F)c1)c1cc(Cl)ccc1OCCn1ccc(=O)[nH]c1=O	inactive	inactive	inactive	inactive	inactive	inactive	inactive	inactive	inactive	inactive	inactive	inactive	770 nM	360 nM	inactive	inactive	> 307000 nM	> 307000 nM	inactive	inactive	solubility [6]: 17.6 µM (≈ 7.16 µg/mL); solubility [7]: 7.3 µM (≈ 2.97 µg/mL); Activity (Vaccinia virus): inactive; selectivity ratio (in vitro [12]): > 11400; selectivity ratio (in vitro [13]): 1; EC50 [14]: 27 nM
Cc1cc(C)cc(C(=O)c2cc(C)ccc2OCCn2ccc(=O)[nH]c2=O)c1	inactive	inactive	inactive	inactive	inactive	inactive	inactive	inactive	inactive	inactive	inactive	inactive	2400 nM	2000 nM	inactive	inactive	> 179000 nM	179000 nM	inactive	inactive	solubility [6]: 58.5 µM (≈ 22.1 µg/mL); solubility [7]: 28.9 µM (≈ 10.9 µg/mL); Activity (Vaccinia virus): inactive; selectivity ratio (in vitro [12]): 3080; selectivity ratio (in vitro [13]): < 1; EC50 [14]: 58 nM
Cc1ccc(OCCn2ccc(=O)[nH]c2=O)c(C(=O)c2ccccc2)c1	inactive	inactive	inactive	inactive	inactive	inactive	inactive	inactive	inactive	inactive	inactive	inactive	5600 nM	1700 nM	inactive	inactive	> 357000 nM	> 357000 nM	inactive	inactive	Activity (Vaccinia virus): inactive; selectivity ratio (in vitro [12]): > 1140; selectivity ratio (in vitro [13]): 1; EC50 [14]: 310 nM
